Like-named read-outs stand apart in the source and are kept apart here.
Legend:
[1] = target: GDP-bound KRAS wild-type protein (Homo sapiens, UniProt P01116); assay: Binding to KRAS by surface plasmon resonance (SPR), dissociation constant KD
Outline: (§1)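 Captured GDP-RAS (~100–300 RU) was exposed to increasing compound concentrations, 75 s per step, in running buffer with 10 µM GDP, 10 mM MgCl2 and 4% DMSO at pH 7.4.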

[2] = target: HRAS wild-type protein (Homo sapiens, UniProt P01112); assay: Binding to HRAS by surface plasmon resonance (SPR), KD and KD ratio to KRAS
Sequence of HRAS wild-type protein (P01112 whole entry): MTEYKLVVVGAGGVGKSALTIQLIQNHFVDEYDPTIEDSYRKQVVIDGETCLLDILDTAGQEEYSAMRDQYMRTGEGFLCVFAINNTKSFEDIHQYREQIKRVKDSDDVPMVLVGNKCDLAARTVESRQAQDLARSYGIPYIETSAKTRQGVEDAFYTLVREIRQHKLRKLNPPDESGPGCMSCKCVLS
Outline: as §1

[3] = target: GDP-bound NRAS wild-type protein (Homo sapiens, UniProt P01111); assay: Binding to NRAS by surface plasmon resonance (SPR), KD and KD ratio to KRAS
Sequence of GDP-bound NRAS wild-type protein (P01111 whole entry): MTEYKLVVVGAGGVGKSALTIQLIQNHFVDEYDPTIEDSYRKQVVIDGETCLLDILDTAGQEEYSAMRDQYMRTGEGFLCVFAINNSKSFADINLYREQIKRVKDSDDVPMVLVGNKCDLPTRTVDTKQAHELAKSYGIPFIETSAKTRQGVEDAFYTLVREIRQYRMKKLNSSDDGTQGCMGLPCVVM
Outline: as §1

[4] = test system: human lung cancer strain NCI-H441; assay: NCI-H441 cell proliferation inhibitory activity (CellTiter-Glo, 4 days); format: cell-based; conditions: read-out: NCl-H441 IC50
Outline: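 Step one: dispense the test compound in serial DMSO dilutions. Step three: add the reagent and measure […].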

[5] = ratio of KD for HRAS wild-type protein to KD for KRAS
[6] = ratio of KD for GDP-bound NRAS wild-type protein to KD for KRAS
[7] = Single Cycle Kinetics, 1:1 binding model
[8] = ratio of KD with respect to HRAS wild-type protein to KD with respect to KRAS
[9] = ratio of KD with respect to GDP-bound NRAS wild-type protein to KD with respect to KRAS
[10] = 50% proliferation inhibitory concentration, four days

Sequence of GDP-bound KRAS wild-type protein (P01116 1-188 isoform P01116-2): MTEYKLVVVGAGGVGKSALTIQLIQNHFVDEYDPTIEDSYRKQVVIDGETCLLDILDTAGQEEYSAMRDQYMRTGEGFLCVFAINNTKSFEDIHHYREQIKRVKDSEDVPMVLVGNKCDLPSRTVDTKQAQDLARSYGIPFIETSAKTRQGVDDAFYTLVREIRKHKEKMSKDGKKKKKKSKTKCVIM

| SMILES | Kd ([1]; 1:1 binding model) [nM] | IC50 ([4]; NCI-H441 cells, 4 days) [nM] | Kd ([1]; Single Cycle Kinetics) [nM] | Kd [1, 7] [nM] | IC50 [4, 10] [nM] | HRAS /KRAS [2, 5] | NRAS /KRAS [3, 6] | HRAS /KRAS [2, 8] | NRAS /KRAS [3, 9] |
| --- | --- | --- | --- | --- | --- | --- | --- | --- | --- |
| CCO[C@@H]1C[C@H]2C(=O)NC3(CC(C)(C)C3)C(=O)N(C)[C@@H](C3CCCC3)C(=O)N(C)[C@H](C(=O)N3CCCCC3)CC(=O)N(C)[C@@H](COC)C(=O)N[C@@H]([C@@H](C)CC)C(=O)N(C)CC(=O)N(C)[C@H]3C/C=C\CCN(C3=O)[C@@H](Cc3ccc(C(F)(F)F)cc3)C(=O)N(C)CC(=O)N[C@@H](CCc3ccc(Cl)c(Cl)c3)C(=O)N2C1 [PP2670] | 0.48 | 25.2 |  |  |  | A (a compound having 10 or more and less than 20 is denoted as A) | AA (a compound having 20 or more is denoted as AA) |  |  |
| CC[C@H](C)[C@@H]1NC(=O)[C@H](COC)N(C)C(=O)C[C@@H](C(=O)N(C)C)N(C)C(=O)[C@H](C2CCCC2)N(C)C(=O)C2(CC(C)(C)C2)NC(=O)[C@@H]2C[C@@H](C)CN2C(=O)[C@H](CCc2ccc(C(F)(F)F)c(OC)c2)NC(=O)CN(C)C(=O)[C@H](Cc2ccc(C)cc2)N2CC/C=C\C[C@@H](C2=O)N(C)C(=O)CN(C)C1=O [PP2387] | 0.11 | 16.5 |  |  |  | A (a compound having 10 or more and less than 20 is denoted as A) | A (a compound having 10 or more and less than 20 is denoted as A) |  |  |
| CCO[C@@H]1C[C@H]2C(=O)NC3(CCCC3)C(=O)N(C)[C@@H](C3CCCC3)C(=O)N(C)[C@H](C(=O)N(C)C)CC(=O)N(C)[C@@H]([C@@H](C)OC)C(=O)N[C@@H]([C@@H](C)CC)C(=O)N3CCC[C@H]3C(=O)N(C)[C@H]3C/C=C\CCN(C3=O)[C@@H](Cc3ccc(C(F)(F)F)cc3)C(=O)N(C)CC(=O)N[C@@H](CCc3cc(F)c(C(F)(F)F)c(F)c3)C(=O)N2C1 [PP3477] |  | 44.7 | 0.51 |  |  | A (a compound having 10 or more and less than 20 is denoted as A) | A (a compound having 10 or more and less than 20 is denoted as A) |  |  |
| CCC[C@H]1C(=O)N[C@@H]([C@@H](C)CC)C(=O)N(C)CC(=O)N(C)[C@H]2C/C=C\CCN(C2=O)[C@@H](Cc2ccc(C)cc2)C(=O)N(C)CC(=O)N[C@@H](CCc2ccc(C(F)(F)F)c(Cl)c2)C(=O)N2CC3(CC3)C[C@H]2C(=O)NC2(CCC2)C(=O)N(C)[C@@H]([C@@H](C)CC)C(=O)N(C)[C@H](C(=O)N(C)C)CC(=O)N1C [PP3426] |  | 17.2 | 0.36 |  |  | A (a compound having 10 or more and less than 20 is denoted as A) | A (a compound having 10 or more and less than 20 is denoted as A) |  |  |
| CCCN(C)C(=O)[C@@H]1CC(=O)N(C)[C@@H](CC(C)C)C(=O)N[C@@H]([C@@H](C)CC)C(=O)N(C)CC(=O)N(C)[C@H]2C/C=C\CCN(C2=O)[C@@H](Cc2ccc(C(F)(F)F)cc2)C(=O)N(C)CC(=O)N[C@@H](CCc2cc(F)c(C(F)(F)F)c(F)c2)C(=O)N2C[C@H](OCC)C[C@H]2C(=O)N[C@]2(C[C@@H](OC)C2)C(=O)N(C)[C@@H](C2CCCC2)C(=O)N1C [PP3352] |  | 12.4 | 0.28 |  |  | B (a compound having 3 or more and less than 10 is denoted as B) | A (a compound having 10 or more and less than 20 is denoted as A) |  |  |
| CCC[C@H]1C(=O)N[C@@H](C2CCCC2)C(=O)N(C)CC(=O)N(C)[C@H]2C/C=C\CCN(C2=O)[C@@H](Cc2ccc(C(F)(F)F)cc2)C(=O)N(C)CC(=O)N[C@@H](CCc2ccc(C(F)(F)F)c(Cl)c2)C(=O)N2CC3(CC3)C[C@H]2C(=O)N(C)C2(CCC2)C(=O)N(C)[C@@H]([C@@H](C)CC)C(=O)N(C)[C@H](C(=O)N(C)C)CC(=O)N1C [PP3323] |  | 9.2 | 1.3 |  |  | A (a compound having 10 or more and less than 20 is denoted as A) | AA (a compound having 20 or more is denoted as AA) |  |  |
| CCC(CC)[C@H]1C(=O)N(C)[C@H](C(=O)N(C)C)CC(=O)N(C)[C@@H](COC)C(=O)N[C@@H]([C@@H](C)CC)C(=O)N2CCC[C@H]2C(=O)N(C)[C@H]2C/C=C\CCN(C2=O)[C@@H](Cc2ccc(C(F)(F)F)cc2)C(=O)N(C)CC(=O)N[C@@H](CCc2ccc(Cl)c(Cl)c2)C(=O)N2C[C@H](OC(C)C)C[C@H]2C(=O)NC2(CC(C)(C)C2)C(=O)N1C [PP2639] | 1.1 | 81.6 |  |  |  | A (a compound having 10 or more and less than 20 is denoted as A) | AA (a compound having 20 or more is denoted as AA) |  |  |
| CCO[C@@H]1C[C@H]2C(=O)NC3(CCC3)C(=O)N(C)[C@@H](C3CCCC3)C(=O)N(C)[C@H](C(=O)N(C)C)CC(=O)N(C)[C@@H](CC(C)(C)C)C(=O)N[C@@H]([C@@H](C)CC)C(=O)N(C)CC(=O)N(C)[C@H]3C/C=C\CCN(C3=O)[C@@H](CC3CCC(F)(F)CC3)C(=O)N(C)CC(=O)N[C@@H](CCc3cc(F)c(C(F)(F)F)c(F)c3)C(=O)N2C1 [PP1460] |  |  |  | 0.23 | 32.9 |  |  | A (a compound having 10 or more and less than 20 is denoted as A) | A (a compound having 10 or more and less than 20 is denoted as A) |
| CC[C@H](C)[C@@H]1NC(=O)[C@H](C)N(C)C(=O)C[C@@H](C(=O)N(C)C)N(C)C(=O)[C@H](C2CCCC2)N(C)C(=O)C2(CCC2)NC(=O)[C@@H]2CCCN2C(=O)[C@H](CCc2cc(F)c(C(F)(F)F)c(F)c2)NC(=O)CN(C)C(=O)[C@H](Cc2ccc(C(F)(F)F)cc2)N2CC/C=C\C[C@@H](C2=O)N(C)C(=O)CN(C)C1=O [PP1271] |  |  |  | 0.054 | 90.7 |  |  | A (a compound having 10 or more and less than 20 is denoted as A) | AA (a compound having 20 or more is denoted as AA) |

The next lines start with results.

| Kd ([1]; 1:1 binding model) [nM] | IC50 ([4]; NCI-H441 cells, 4 days) [nM] | Kd ([1]; Single Cycle Kinetics) [nM] | Kd [1, 7] [nM] | IC50 [4, 10] [nM] | SMILES | HRAS /KRAS [2, 5] | NRAS /KRAS [3, 6] | HRAS /KRAS [2, 8] | NRAS /KRAS [3, 9] |
| --- | --- | --- | --- | --- | --- | --- | --- | --- | --- |
|  | 5.4 | 0.041 |  |  | CCC[C@H]1C(=O)N[C@@H]([C@@H](C)CC)C(=O)N(C)CC(=O)N(C)[C@H]2C/C=C\CCN(C2=O)[C@@H](Cc2ccc(C(F)(F)F)cc2)C(=O)N(C)CC(=O)N[C@@H](CCc2ccc(C(F)(F)F)c(Cl)c2)C(=O)N2CC3(CC3)C[C@H]2C(=O)NC2(CCC2)C(=O)N(C)[C@@H](CC(C)(C)C)C(=O)N(C)[C@H](C(=O)N(C)C)CC(=O)N1C [PP3418] | B (a compound having 3 or more and less than 10 is denoted as B) | A (a compound having 10 or more and less than 20 is denoted as A) |  |  |
|  | 8.8 | 0.25 |  |  | CCO[C@@H]1C[C@H]2C(=O)NC3(CCCC3)C(=O)N(C)[C@@H](C3CCCC3)C(=O)N(C)[C@H](C(=O)N(C)C)CC(=O)N(C)[C@@H](CC(C)C)C(=O)N[C@@H]([C@@H](C)CC)C(=O)N(C)CC(=O)N(C)[C@H]3C/C(F)=C\CCN(C3=O)[C@@H](Cc3ccc(C)cc3)C(=O)N(C)CC(=O)N[C@@H](CCc3ccc(C(F)(F)F)c(OC)c3)C(=O)N2C1 [PP3512] | B (a compound having 3 or more and less than 10 is denoted as B) | B (a compound having 3 or more and less than 10 is denoted as B) |  |  |
| 0.17 | 8.6 |  |  |  | CCOC[C@H]1C(=O)N[C@@H]([C@@H](C)CC)C(=O)N(C)CC(=O)N(C)[C@H]2C/C=C\CCN(C2=O)[C@@H](Cc2ccc(C)cc2)C(=O)N(C)CC(=O)N[C@@H](CCc2ccc(C(F)(F)F)c(Cl)c2)C(=O)N2C[C@@H](C)C[C@H]2C(=O)NC2(CC(C)(C)C2)C(=O)N(C)[C@@H](C2CCCC2)C(=O)N(C)[C@H](C(=O)N(C)CC)CC(=O)N1C [PP2451] | A (a compound having 10 or more and less than 20 is denoted as A) | A (a compound having 10 or more and less than 20 is denoted as A) |  |  |
| 0.85 | 2.1 |  |  |  | CCC[C@H]1C(=O)N[C@@H]([C@@H](C)CC)C(=O)N2CCC[C@H]2C(=O)N(C)[C@H]2C/C=C\CCN(C2=O)[C@@H](CC2CCC(F)(F)CC2)C(=O)N(C)CC(=O)N[C@@H](CCc2ccc(C(F)(F)F)c(OC)c2)C(=O)N2C[C@@H](C)C[C@H]2C(=O)N(C)C2(CCC2)C(=O)N(C)[C@@H](C2CCCC2)C(=O)N(C)[C@H](C(=O)N(C)C)CC(=O)N1C [PP2380] | A (a compound having 10 or more and less than 20 is denoted as A) | A (a compound having 10 or more and less than 20 is denoted as A) |  |  |
|  | 7 | 0.1 |  |  | CCC[C@H]1C(=O)N[C@@H]([C@@H](C)CC)C(=O)N(C)CC(=O)N(C)[C@H]2C/C=C\CCN(C2=O)[C@@H](Cc2ccc(C)cc2)C(=O)N(C)CC(=O)N[C@@H](CCc2cc(F)c(C(F)(F)F)c(F)c2)C(=O)N2CC3(CC3)C[C@H]2C(=O)N(C)C2(CCC2)C(=O)N(C)[C@@H]([C@@H](C)CC)C(=O)N(C)[C@H](C(=O)N(C)C)CC(=O)N1C [PP3331] | A (a compound having 10 or more and less than 20 is denoted as A) | A (a compound having 10 or more and less than 20 is denoted as A) |  |  |
| 0.076 | 2.3 |  |  |  | CCC[C@H]1C(=O)N[C@@H]([C@@H](C)CC)C(=O)N(C)CC(=O)N(C)[C@H]2C/C=C\CCN(C2=O)[C@@H](Cc2ccc(C)cc2)C(=O)N(C)CC(=O)N[C@@H](CCc2cc(F)c(C(F)(F)F)c(F)c2)C(=O)N2C[C@H](OCC)C[C@H]2C(=O)NC2(CC(C)(C)C2)C(=O)N(C)[C@@H](CC(C)(C)C)C(=O)N(C)[C@H](C(=O)N(C)C)CC(=O)N1C [PP2706] | B (a compound having 3 or more and less than 10 is denoted as B) | A (a compound having 10 or more and less than 20 is denoted as A) |  |  |
